This note sets out measurements from patent publication US6653306B1, “Epoxy-steroidal aldosterone antagonist and angiotensin II antagonist combination therapy” (G.D. Searle & Co., priority 1995, dated 2003).

pIC50: −log10 of the molar value.

Assay [1] has as its target angiotensin II AT1 receptor. The assay is described as follows: Assay A: Angiotensin II binding activity (125I-AII displacement, rat uterine membrane preparation). Here is the method: Assay A: Antiotensin II Binding Activity
Compounds of the invention were tested for ability to bind to the smooth muscle angiotensin II receptor using a rat uterine membrane preparation. […] Rat uterine membranes were prepared from fresh tissue. All procedures were carried out at 4° C. Uteri were stripped of fat and homogenized in phosphate-buffered saline at pH 7.4 containing 5 mM EDTA. The homogenate was centrifuged at 1500×g for 20 min., and the supernatant was recentrifuged at 100,000×g for 60 min. The pellet was resuspended in buffer consisting of 2 mM EDTA and 50 mM Tris-HCl (pH 7.5) to a final protein concentration of 4 mg/ml. […] The reaction was initiated by the addition of membrane protein and the mixture was incubated at 25° C. for 60 min. The incubation was terminated with ice-cold 50 mM Tris-HCl (pH 7.5) and the mixture was filtered to separate membrane-bound labelled peptide from the free ligand. The incubation tube and filter were washed with ice-cold buffer. Filters were assayed for radioactivity in a Micromedic gamma counter.
Nonspecific binding was defined as binding in the presence of 10 μM of unlabelled AII. Specific binding was calculated as total binding minus nonspecific binding. […] Binding data were analyzed by a nonlinear least-squares curve fitting program.

In another assay the test system is pressor response to AII. The assay is described as follows: Assay C: In vivo intragastric pressor assay response for AII antagonists. The arrangement: species or system rat. To be noted: intragastric, or intraduodenal for examples listed; for inhibition at 3 mg/kg / Assay C Duration: dose 3 mg/kg. Here is the method:
Assay C: In Vivo Intragastric Pressor Assay Response for AII Antagonists
Male Sprague-Dawley rats weighing 225-300 grams were anesthetized with methohexital (30 mg/kg, i.p.) and catheters were implanted into the femoral artery and vein. The catheters were tunneled subcutaneously to exit dorsally, posterior to the head and between the scapulae. The catheters were filled with heparin (1000 units/ml of saline). The rats were returned to their cage and allowed regular rat chow and water ad libitum. After full recovery from surgery (3-4 days), rats were placed in Lucite holders and the arterial line was connected to a pressure transducer. Arterial pressure was recorded on a Gould polygraph (mmHg). Angiotensin II was administered as a 30 ng/kg bolus via the venous catheter delivered in a 50 μl volume with a 0.2 ml saline flush. The pressor response in mm Hg was measured by the differer.-:e from pre-injection arterial pressure to the maximum pressure achieved. The AII injection was repeated every 10 minutes until three consecutive injections yielded responses within 4 mmHg of each other. These three responses were then averaged and represented the control response to AII. The test compound was suspended in 0.5% methylcellulose in water and was administered by gavage. The volume administered was 2 ml/kg body weight. The standard dose was 3 mg/kg. Angiotensin II bolus injections were given at 30, 45, 60, 75, 120, 150, and 180 minutes after gavage. The pressor response to AII was measured at each time point. The rats were then returned to their cage for future testing. A minimum of 3 days was allowed between tests. Percent inhibition was calculated for each time point following gavage by the following formula:
[(Control Response—Response at time point)/Control Response]×100.

For `CCCCc1cn(CCC(C)C)c(=O)n1Cc1ccc(-c2ccccc2-c2nnn[nH]2)nc1` [Compound 198], the pIC50 (in general, the IC50 on a negative log10 scale, so that one unit is a factor of ten) in assay [1] was 8.12. For the same compound, the inhibition – broadly, the relative decrease from the control value, in per cent – at 3 mg/kg in the assay with pressor response to AII (Rattus norvegicus) is 35%. The “Assay C Duration” value in the assay on pressor response to AII is >180 min.
On to `CCCCc1nc(CCCC)n(Cc2ccc(-c3ccccc3-c3nnn[nH]3)nc2)n1` [Compound 241], for which at 3 mg/kg the inhibition with pressor response to AII (Rattus norvegicus) was 40%.
In assay [1], `CCCCc1cn(CCC2CC2)c(=O)n1Cc1ccc(-c2ccccc2-c2nnn[nH]2)nc1` [Compound 206] showed a pIC50 of 8.27. The same compound showed an inhibition at 3 mg/kg in the assay with pressor response to AII (Rattus norvegicus) of 30%. For the same compound, the “Assay C Duration” value in the assay on pressor response to AII was >180 min.
The like results for `CCCCc1cn(CCCC)c(=O)n1Cc1ccc(-c2ccccc2-c2nnn[nH]2)nc1` [Compound 185] were, in that order, 8.19, 50% and >180 min.
In the assay with pressor response to AII (Rattus norvegicus), `CCCCc1nc(CCCC)n(Cc2ccc(-c3ccccc3C(=O)O)cc2)n1` [compound 2] gave an inhibition at 10 mg/kg of 95% and an inhibition at 30 mg/kg of 98%.
On to `CCCCc1cn(-c2c(F)cccc2F)c(=O)n1Cc1ccc(-c2ccccc2-c2nnn[nH]2)nc1` [Compound 220], for which, in assay [1], the pIC50 is 8.15. Moreover, in the assay on pressor response to AII (Rattus norvegicus), the inhibition at 3 mg/kg worked out at 75%. Besides, the “Assay C Duration” value in the assay with pressor response to AII was found to be 120 min.
As to `CCCCc1cn(-c2ccccc2C(C)C)c(=O)n1Cc1ccc(-c2ccccc2-c2nnn[nH]2)cc1` [Compound 272], in assay [1], the pIC50 is 7.01. The compound also registered an inhibition at 3 mg/kg with pressor response to AII (Rattus norvegicus) of 70%. The “Assay C Duration” value in the assay with pressor response to AII is >180 min.
The like results for `CCCCc1cn(CCc2cccs2)c(=O)n1Cc1ccc(-c2ccccc2-c2nnn[nH]2)nc1` [Compound 209] were, in that order, 8.30, 25% and >180 min.
The like results for `CCCCc1cn(CC2CCCC2)c(=O)n1Cc1ccc(-c2ccccc2-c2nnn[nH]2)nc1` [Compound 208] were, in that order, 7.66, 50% and >180 min.
As to `CCCCc1nc(CCCC)n(Cc2ccc(-c3ccccc3-c3nnn[nH]3)cc2)n1` [compound 3], in the assay with pressor response to AII (Rattus norvegicus), the inhibition at 10 mg/kg is 50% and the inhibition at 30 mg/kg was 100%.
Regarding `CCCCc1nc(C(=O)N(C)C(C)(C)C)n(Cc2ccc(-c3ccccc3-c3nnn[nH]3)nc2)n1` [Compound 256], the pIC50 in assay [1] is 8.39. Also, in the assay with pressor response to AII (Rattus norvegicus), the inhibition at 3 mg/kg came to 30%. The “Assay C Duration” value in the assay with pressor response to AII was >180 min.
The like results for `CCCCn1nc(CCc2cccs2)nc1Cc1ccc(-c2ccccc2-c2nnn[nH]2)nc1` [Compound 153] were, in that order, 7.89, 25% and >180 min.
On to `CCCCc1nc(C(F)(F)CCC)nn1Cc1ccc(-c2ccccc2-c2nnn[nH]2)cc1` [compound 10], for which, in the assay with pressor response to AII (Rattus norvegicus), 3 mg/kg produced 86% inhibition and at 30 mg/kg the inhibition was 100%.
On to `CCCCc1cn(-c2c(C)cccc2Cl)c(=O)n1Cc1ccc(-c2ccccc2-c2nnn[nH]2)nc1` [Compound 231], for which the pIC50 in assay [1] is 8.44. The compound further displayed an inhibition at 3 mg/kg in the assay on pressor response to AII (Rattus norvegicus) of 75%. The “Assay C Duration” value with pressor response to AII is >180 min.
The like results for `CCCCc1cn(CCCC)c(=O)n1Cc1ccc(-c2ccccc2-c2nnn[nH]2)cn1` [Compound 223] were, in that order, 7.85, 20% and >180 min.
In turn, `CCCCn1cc(CCC2CC2)n(Cc2ccc(-c3ccccc3-c3nnn[nH]3)nc2)c1=O` [Compound 193] gave a pIC50 in assay [1] of 7.96. In the assay on pressor response to AII (Rattus norvegicus), this compound yielded an inhibition at 3 mg/kg of 10%. Besides, in the assay on pressor response to AII, the “Assay C Duration” value was 180 min.
The like results for `CCCCc1cn(-c2ccccc2C(C)(C)C)c(=O)n1Cc1ccc(-c2ccccc2-c2nnn[nH]2)nc1` [Compound 229] were, in that order, 7.72, 40% and >180 min.
The like results for `CCCCn1nc(C2OCCCO2)nc1Cc1ccc(-c2ccccc2-c2nnn[nH]2)nc1` [Compound 180] were, in that order, 7.70, 25% and 180 min.
For the compound `CCCCc1cn(-c2ccccc2CC)c(=O)n1Cc1ccc(-c2ccccc2-c2nnn[nH]2)cc1` [Compound 271], the pIC50 in assay [1] is 7.85. The compound also had an inhibition at 3 mg/kg in the assay with pressor response to AII (Rattus norvegicus) of 20%.
In assay [1], `CCCCc1cn(CCC2CCCC2)c(=O)n1Cc1ccc(-c2ccccc2-c2nnn[nH]2)nc1` [Compound 211] showed a pIC50 of 7.74. For the same compound, in the assay on pressor response to AII (Rattus norvegicus), at 3 mg/kg the inhibition was 35%. Further, the “Assay C Duration” value in the assay with pressor response to AII is >180 min.
In the case of `CCCCc1nc(-c2ccccc2Cl)nn1Cc1ccc(-c2ccccc2-c2nnn[nH]2)nc1` [Compound 267], the pIC50 in assay [1] is 7.60. This compound registered an inhibition at 3 mg/kg with pressor response to AII (Rattus norvegicus) of 25%. The “Assay C Duration” value in the assay with pressor response to AII is >180 min.
Take `CCCCc1cn([C@H]2[C@H](C)CCC[C@@H]2C)c(=O)n1Cc1ccc(-c2ccccc2-c2nnn[nH]2)nc1` [Compound 236]: the pIC50 in assay [1] was 8.31. For the same compound, the inhibition at 3 mg/kg with pressor response to AII (Rattus norvegicus) came out at 70%. Besides, the “Assay C Duration” value in the assay with pressor response to AII is >180 min.
In assay [1], `CCCCc1cn(-c2c(CC)cccc2CC)c(=O)n1Cc1ccc(-c2ccccc2-c2nnn[nH]2)nc1` [Compound 234] showed a pIC50 of 8.30. In the assay on pressor response to AII (Rattus norvegicus), testing at 3 mg/kg gave an inhibition of 20%.
In assay [1], `CCCCc1cn(-c2ccccc2CC)c(=O)n1Cc1ccc(-c2ccccc2-c2nnn[nH]2)nc1` [Compound 228] had a pIC50 of 8.35. Besides, in the assay with pressor response to AII (Rattus norvegicus), at 3 mg/kg the inhibition was 80%. In addition, the “Assay C Duration” value in the assay on pressor response to AII is >180 min.
`CCCCc1cn(-c2c(Cl)cccc2Cl)c(=O)n1Cc1ccc(-c2ccccc2-c2nnn[nH]2)nc1` [Compound 221]: the pIC50 in assay [1] is 8.32. Further, at 3 mg/kg the inhibition in the assay with pressor response to AII (Rattus norvegicus) was 25%. For the same compound, the “Assay C Duration” value with pressor response to AII is >180 min.
The like results for `CCCCc1cn(-c2cccn2CC)c(=O)n1Cc1ccc(-c2ccccc2-c2nnn[nH]2)nc1` [Compound 238] were, in that order, 8.77, 15% and >180 min.
The like results for `CCCCn1nc(C(F)(F)CCC)nc1Cc1ccc(-c2ccccc2-c2nnn[nH]2)nc1` [Compound 170] were, in that order, 7.59, 40% and >180 min.
The like results for `CCCCn1nc(C2OCC(C)(C)CO2)nc1Cc1ccc(-c2ccccc2-c2nnn[nH]2)nc1` [Compound 181] were, in that order, 7.68, 20% and 180 min.
As for `CCCCc1nc(Cl)n(Cc2ccc(-c3ccccc3-c3nnn[nH]3)cc2)n1` [compound 9], testing at 30 mg/kg in the assay with pressor response to AII (Rattus norvegicus) gave an inhibition of 80%. The compound further had an inhibition at 100 mg/kg in the assay with pressor response to AII (Rattus norvegicus, dose 100 mg/kg) of 100%.
In assay [1], `CCCCc1nc(CCCN)n(Cc2ccc(-c3ccccc3-c3nnn[nH]3)cc2)n1` [Compound 71] had a pIC50 of 4.92.
The same measure, in the same setting: then `CCCCc1nn(C(Cc2ccccc2)C(=O)c2ccccc2)c(=O)n1Cc1ccc(-c2ccccc2-c2nn[nH]n2)cc1` (centres unmarked) [Compound 94], with 5.24; and `CCCCn1nc(C(=O)NC(C)(C)C)nc1Cc1ccc(-c2ccccc2-c2nnn[nH]2)nc1` [Compound 173], with 7.05; and `CCCCc1nc(C)nn1Cc1ccc(-c2ccccc2-c2nnn[nH]2)cc1` [Compound 32], with 7.80.
Still for that read-out and setting: then `CCCCn1cc(CC(C)C)n(Cc2ccc(-c3ccccc3-c3nnn[nH]3)nc2)c1=O` [Compound 188], with 6.85; and `CCCCc1nc(C23CC4CC(CC(C4)C2)C3)nn1Cc1ccc(-c2ccccc2-c2nnn[nH]2)cc1` [Compound 56], with 8.30.
Same read-out and setting: then `CCCCc1nc(C23CC4CC(CC(C4)C2)C3)n(Cc2ccc(-c3ccccc3-c3nnn[nH]3)cc2)n1` [Compound 55], with 7.10.
Compound `CCCCc1nc(CCCC)n(Cc2ccc(-c3ccccc3C(=O)NNS(=O)(=O)C(F)(F)F)cc2)n1` [compound 5] registered an inhibition at 30 mg/kg in the assay with pressor response to AII (Rattus norvegicus) of 38%.
For `CCCCc1nn(/C(Cc2ccccc2)=C(/OCc2ccccc2)c2ccccc2)c(=O)n1Cc1ccc(-c2ccccc2-c2nn[nH]n2)cc1` [Compound 93], in assay [1], the pIC50 is 6.32.
Still for that read-out and setting: then `CCCCn1nc(C(F)CCC)nc1Cc1ccc(-c2ccccc2-c2nnn[nH]2)nc1` (centres unmarked) [Compound 161], with 7.55.
